Data: US8791132B2, “Compounds and methods for treatment of hypertension” (Medivation Technologies, Inc., priority 2011, dated 2014)
“And” between values parts separate entries of the source, which are not always exact repeats. Identical values can stand only once. Like-named read-outs stand apart in the source and are kept apart here.

Columns and labels:
[1] = biological target: T1, human recombinant adrenergic α2B receptor (Homo sapiens, UniProt P18089); assay: Radioligand binding, adrenergic α2B ([3H]Rauwolscine); details: for Percentage inhibition of ligand binding, Adrenergic α2B (0.03 μM) / Percentage inhibition of ligand binding, Adrenergic α2B: 0.03 µM; for Ki: read-out: Ki α2B
T1 construct: expressed in transfected cells; host or cells: CHO-K1
T1 sequence (P18089 1-450): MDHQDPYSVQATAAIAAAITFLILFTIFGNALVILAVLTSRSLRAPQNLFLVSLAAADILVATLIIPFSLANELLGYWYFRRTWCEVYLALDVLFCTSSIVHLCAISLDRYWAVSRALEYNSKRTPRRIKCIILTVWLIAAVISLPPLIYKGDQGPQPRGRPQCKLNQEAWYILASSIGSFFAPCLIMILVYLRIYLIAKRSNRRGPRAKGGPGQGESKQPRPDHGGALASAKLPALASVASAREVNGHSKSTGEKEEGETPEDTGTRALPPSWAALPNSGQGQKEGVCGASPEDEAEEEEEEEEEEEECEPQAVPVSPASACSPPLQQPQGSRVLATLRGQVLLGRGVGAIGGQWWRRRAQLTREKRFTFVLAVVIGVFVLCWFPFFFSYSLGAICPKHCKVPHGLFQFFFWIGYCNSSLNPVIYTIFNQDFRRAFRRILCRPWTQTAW
Procedure, shortened: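 Readout: percent inhibition of specific [3H]Rauwolscine binding, measured by filtration and counting. Conditions: CHO-K1 cell-expressed receptor, 2.5 nM radioligand, 60 min, 25° C, Tris-HCl pH 7.4 buffer with MgCl2, EDTA, BSA. Non-specific binding: 10 μM Prazosin.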

[2] = biological target: T2, human recombinant adrenergic α2A receptor (Homo sapiens, UniProt P08913); assay: Radioligand binding, adrenergic α2A ([3H]MK-912); details: for Percentage inhibition of ligand binding, Adrenergic α2A (0.1 μM) / Percentage inhibition of ligand binding, Adrenergic α2A: 0.1 µM
T2 construct: expressed in transfected cells; host or cells: insect Sf9 cells
T2 sequence (P08913 1-465): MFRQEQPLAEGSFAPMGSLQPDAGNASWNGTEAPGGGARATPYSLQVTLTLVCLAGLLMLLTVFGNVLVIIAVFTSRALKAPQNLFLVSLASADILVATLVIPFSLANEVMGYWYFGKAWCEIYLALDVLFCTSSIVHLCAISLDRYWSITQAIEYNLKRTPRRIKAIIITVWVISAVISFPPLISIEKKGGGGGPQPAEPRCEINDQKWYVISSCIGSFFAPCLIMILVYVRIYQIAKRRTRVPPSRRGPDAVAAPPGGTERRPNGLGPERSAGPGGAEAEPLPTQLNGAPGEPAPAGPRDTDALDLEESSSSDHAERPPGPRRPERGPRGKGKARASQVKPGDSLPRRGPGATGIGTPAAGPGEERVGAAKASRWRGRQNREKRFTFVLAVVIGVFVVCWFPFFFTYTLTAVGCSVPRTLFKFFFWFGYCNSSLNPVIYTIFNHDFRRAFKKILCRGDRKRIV
Procedure, shortened: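 Receptor expressed in Sf9 cells, in 50 mM Tris-HCl pH 7.4, 12.5 mM MgCl2, 2 mM EDTA; compounds incubated with 1 nM [3H]MK-912 for 60 min at 25 °C.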

[3] = biological target: T3, rat adrenergic α1B receptor (Rattus norvegicus, UniProt P15823); assay: Radioligand binding, adrenergic α1B ([3H]Prazosin); details: for Percentage inhibition of ligand binding, Adrenergic α1B (0.1 μM) / Percentage inhibition of ligand binding, Adrenergic α1B: 0.1 µM
T3 construct: rat adrenergic α1B receptor obtained from Wistar Rat liver; from tissue; host or cells: Wistar rat liver
T3 sequence (P15823 1-515): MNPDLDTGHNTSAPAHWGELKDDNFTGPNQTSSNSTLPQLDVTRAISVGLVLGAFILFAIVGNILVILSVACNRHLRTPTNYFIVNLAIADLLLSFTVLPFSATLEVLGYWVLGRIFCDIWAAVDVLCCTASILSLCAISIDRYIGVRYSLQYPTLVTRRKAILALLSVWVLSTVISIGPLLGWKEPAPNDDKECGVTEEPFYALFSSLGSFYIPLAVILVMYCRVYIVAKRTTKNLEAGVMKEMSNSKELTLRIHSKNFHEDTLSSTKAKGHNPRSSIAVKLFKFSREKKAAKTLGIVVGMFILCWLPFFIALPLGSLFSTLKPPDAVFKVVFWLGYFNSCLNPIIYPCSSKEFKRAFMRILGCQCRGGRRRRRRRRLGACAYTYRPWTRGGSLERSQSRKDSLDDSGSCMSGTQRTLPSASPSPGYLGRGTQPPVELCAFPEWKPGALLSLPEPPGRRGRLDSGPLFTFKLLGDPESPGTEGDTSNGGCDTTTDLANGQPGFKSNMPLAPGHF
Procedure, shortened: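 Specific binding, taken as total minus that remaining with 10 μM phentolamine, is measured after filtration and counting. Rat liver receptor preparation and 0.25 nM [3H]prazosin are incubated with compound in 50 mM Tris-HCl (pH 7.4, 0.5 mM EDTA) at 25° C for 60 min. Activity is reported as percent inhibition.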

[4] = compound at 0.03 μM, [3H]Rauwolscine, repeat datapoints each shown
[5] = compound at 0.1 μM, [3H]MK-912, repeat datapoints each shown
[6] = compound at 0.1 μM, [3H]Prazosin, repeat datapoints each shown
[7] = compound at 0.03 μM, [3H]Rauwolscine, repeat assays, each datapoint shown
[8] = compound at 0.1 μM, [3H]MK-912, repeat assays, each datapoint shown
[9] = compound at 0.1 μM, [3H]Prazosin, repeat assays, each datapoint shown
[10] = read-out: Percentage inhibition of ligand binding, Adrenergic α2B (0.03 μM), compound at 0.03 μM, [3H]Rauwolscine, repeat datapoints each shown
[11] = read-out: Percentage inhibition of ligand binding, Adrenergic α2A (0.1 μM), compound at 0.1 μM, [3H]MK-912, repeat datapoints each shown
[12] = read-out: Percentage inhibition of ligand binding, Adrenergic α1B (0.1 μM), compound at 0.1 μM, [3H]Prazosin, repeat datapoints each shown
[13] = 0.03 μM compound, read-out: Percentage inhibition of ligand binding, Adrenergic α2B
[14] = 0.1 μM compound, read-out: Percentage inhibition of ligand binding, Adrenergic α2A
[15] = 0.1 μM compound, read-out: Percentage inhibition of ligand binding, Adrenergic α1B

CC(O)c1ccc2c(c1)c1c(n2CC(O)c2ccncc2)CCN(C)C1 (centres unmarked) [compound 70]
inhibition at 0.03 µM ([1]; compound at 0.03 μM, [3H]Rauwolscine, repeat assays, each datapoint shown, read-out: Percentage inhibition of ligand binding, Adrenergic α2B): 26% | inhibition at 0.1 µM ([2]; compound at 0.1 μM, [3H]MK-912, repeat assays, each datapoint shown, read-out: Percentage inhibition of ligand binding, Adrenergic α2A): 10% | inhibition at 0.1 µM ([3]; compound at 0.1 μM, [3H]Prazosin, repeat assays, each datapoint shown, read-out: Percentage inhibition of ligand binding, Adrenergic α1B): 8%

Cc1ccc2c(c1)c1c(n2CC(C)(N)c2cccnc2)CCN(C)C1 (single isomer, unassigned) [149b, 1-(2,8-dimethyl-3,4-dihydro-1H-pyrido[4,3-b]indol-5(2H)-yl)-2-(pyridin-3-yl)propan-2-amine]
Percentage inhibition of ligand binding, Adrenergic α2B (0.03 μM) [1, 4]: 32% | Percentage inhibition of ligand binding, Adrenergic α2A (0.1 μM) [2, 5]: 19% | Percentage inhibition of ligand binding, Adrenergic α1B (0.1 μM) [3, 6]: 16%

Cc1ccc2c(c1)c1c(n2CC(C)(O)c2cccnc2)C(c2ccccc2)N(C)CC1 (stereo not drawn) [II-112b, 1-(2,6-dimethyl-1-phenyl-1,2,3,4-tetrahydro-β-carbolin-9-yl)-2-pyridin-3-yl-propan-2-ol]
Percentage inhibition of ligand binding, Adrenergic α2B (0.03 μM) [1, 4]: 31% | Percentage inhibition of ligand binding, Adrenergic α2A (0.1 μM) [2, 5]: 3% | Percentage inhibition of ligand binding, Adrenergic α1B (0.1 μM) [3, 6]: 10%

Cc1cnc2c(c1)c1c(n2CC(C)(O)c2cccnc2)CCN2CCCC12 (single isomer, unassigned) [26b]
Percentage inhibition of ligand binding, Adrenergic α2B [1, 7]: 75% and 88% | inhibition at 0.1 µM ([1]; compound at 0.1 μM, [3H]Rauwolscine, repeat assays, each datapoint shown, read-out: Percentage inhibition of ligand binding, Adrenergic α2B): 100% | Ki [1]: 3.06 nM | Percentage inhibition of ligand binding, Adrenergic α2A [2, 8]: 12% | Percentage inhibition of ligand binding, Adrenergic α1B [3, 9]: 15%

Cc1ccc2c(c1)c1c(n2CC(O)c2ccc(C(N)=O)cc2)CCN(C)C1 (single isomer, unassigned) [139a, 4-[2-(2,8-dimethyl-1,2,3,4-tetrahydro-pyrido[4,3-b]indol-5-yl)-1-hydroxy-ethyl]-benzamide]
Percentage inhibition of ligand binding, Adrenergic α2B (0.03 μM) [1, 4]: 101% | Ki [1]: 2.36 nM | inhibition at 0.03 µM [1, 10]: 88% | inhibition at 0.1 µM [2, 11]: 16% | inhibition at 0.1 µM [3, 12]: 17%

CN1CCc2c(c3cc(CO)ccc3n2CC(C)(O)c2cccnc2)C1 (centres unmarked) [II-102]
inhibition at 0.03 µM [1, 13]: 49% | inhibition at 0.1 µM [2, 14]: 10% | inhibition at 0.1 µM [3, 15]: 2%

Cc1cnc2c(c1)c1c(n2CC(O)c2ccc(C#N)cc2)CCNC1 (centres unmarked) [II-116]
inhibition at 0.03 µM [1, 10]: 43% | inhibition at 0.1 µM [2, 11]: 3% | inhibition at 0.1 µM [3, 12]: 4%

Cc1ccc2c(c1)c1c(n2CC(O)c2ccncc2)CCN(CC(=O)O)C1 (centres unmarked) [II-65, [5-(2-hydroxy-2-pyridin-4-yl-ethyl)-8-methyl-1,3,4,5-tetrahydro-pyrido[4,3-b]indol-2-yl]-acetic acid]
inhibition at 0.03 µM [1, 13]: 25% | inhibition at 0.1 µM [2, 14]: 12% | inhibition at 0.1 µM [3, 15]: 10%

Cc1ccc2c(c1)c1c(n2CC(O)c2ccncc2)CCN(C)CC1 (single isomer, unassigned) [13a, 2-(3,9-dimethyl-2,3,4,5-tetrahydroazepino[4,5-b]indol-6(1H)-yl)-1-(pyridin-4-yl)ethanol]
Percentage inhibition of ligand binding, Adrenergic α2B [1, 7]: 37% | Percentage inhibition of ligand binding, Adrenergic α2A [2, 8]: −2% | Percentage inhibition of ligand binding, Adrenergic α1B [3, 9]: 75%

Cc1cc(C)c2c(c1)c1c(n2CC(O)c2ccncc2)CCN2CCCC12 (single isomer, unassigned) [II-125b, 2-(8,10-dimethyl-2,3,5,6-tetrahydro-1H-indolizino[7,8-b]indol-7(11cH)-yl)-1-(pyridin-4-yl)ethanol]
Percentage inhibition of ligand binding, Adrenergic α2B (0.03 μM) [1, 4]: 106% | Ki [1]: 0.16 nM | inhibition at 0.03 µM [1, 10]: 103% | Ki [2]: 1.21 nM | Percentage inhibition of ligand binding, Adrenergic α2A (0.1 μM) [2, 5]: 98% | inhibition at 0.03 µM ([2]; read-out: Percentage inhibition of ligand binding, Adrenergic α2A (0.03 μM), compound at 0.03 μM, [3H]MK-912, repeat datapoints each shown): 89% | inhibition at 0.1 µM [2, 11]: 97% | Percentage inhibition of ligand binding, Adrenergic α1B (0.1 μM) [3, 6]: 102% | inhibition at 0.03 µM ([3]; read-out: Percentage inhibition of ligand binding, Adrenergic α1B (0.03 μM), compound at 0.03 μM, [3H]Prazosin, repeat datapoints each shown): 89% | inhibition at 0.1 µM [3, 12]: 97%

Cc1ccc2c(c1)c1c(n2CC(O)C2CCCCC2)CCN(C)C1 (centres unmarked) [II-91]
inhibition at 0.03 µM [1, 13]: 25% | inhibition at 0.1 µM [2, 14]: -2% | inhibition at 0.1 µM [3, 15]: 16%

Cc1ccc2c(c1)c1c(n2CC(N)c2ccc(C(N)=O)nc2)CCN(C)C1 (centres unmarked) [compound 157, 5-[1-amino-2-(2,8-dimethyl-1,2,3,4-tetrahydro-pyrido[4,3-b]indol-5-yl)-ethyl]-pyridine-2-carboxylic acid amide]
inhibition at 0.03 µM [1, 10]: 43% | inhibition at 0.1 µM [2, 11]: 6% | inhibition at 0.1 µM [3, 12]: 57%

Cc1ccc2c(c1)c1c(n2CC(C)(N=[N+]=[N-])c2cccnc2)CCN(C)C1 (centres unmarked) [V-3, 5-(2-azido-2-(pyridin-3-yl)propyl)-2,8-dimethyl-2,3,4,5-tetrahydro-1H-pyrido[4,3-b]indole]
inhibition at 0.03 µM [1, 10]: 71% | inhibition at 0.1 µM [2, 11]: 40% | inhibition at 0.1 µM [3, 12]: 22%

CN1Cc2c(n(CC(O)c3ccncc3)c3ncccc23)C(C)(C)C1 (single isomer, unassigned) [17a, 1-pyridin-4-yl-2-(6,8,8-trimethyl-5,6,7,8-tetrahydro-1,6,9-triaza-fluoren-9-yl)-ethanol]
Percentage inhibition of ligand binding, Adrenergic α2B [1, 7]: 32% | Percentage inhibition of ligand binding, Adrenergic α2A [2, 8]: 19% | Percentage inhibition of ligand binding, Adrenergic α1B [3, 9]: 13%

Cc1cnc2c(c1)c1c(n2CCc2ccncc2)CCN2CCCC12 (single isomer, unassigned) [II-244a, 9-methyl-6-(2-pyridin-4-yl-ethyl)-2,3,4,5,6,10c-hexahydro-1H-3a,6,7-triaza-cyclopenta[c]fluorene]
Percentage inhibition of ligand binding, Adrenergic α2B (0.03 μM) [1, 4]: 102% | Percentage inhibition of ligand binding, Adrenergic α2A (0.1 μM) [2, 5]: 22% | Percentage inhibition of ligand binding, Adrenergic α1B (0.1 μM) [3, 6]: 95%
